These are literature values, as cited in patent publication US20250019557A1, “INK SET AND INKJET RECORDING APPARATUS” (KYOCERA Document Solutions Inc., priority 2023, published 2025).

The conditions of the series: octanol/water partition coefficient; literature value, or calculated where none exists.
A word on the LogP: it is a log measure of how a compound divides between an organic and an aqueous phase. `CC(O)CO` (stereo not shown) [1,2-Propanediol]: the LogP is given as −0.92. `OCCCO` [1,3-Propanediol]: the LogP is on record as −1.04. As for `CC(CCO)CCO` [3-Methyl-1,5-pentanediol], the LogP is 0.35. Take `CCCCOCCOCCOCCO` [Triethylene glycol monobutyl ether]: the LogP is recorded as 0.44.
